Data taken from patent US20090312521A1 (priority 2004, published 2009).
In brackets after ≈: the same amount, converted by molar mass. Non-standard residues stand in square brackets, D forms with d. Residues, ends and D or L forms follow the SMILES beside them. β3hY = N[C@H](CC(=O)O)Cc1ccc(O)cc1; NMeS = CN[C@@H](CO)C(=O)O; β3hS = N[C@@H](CO)CC(=O)O; Ava = NCCCCC(=O)O; GABA = NCCCC(=O)O; Sar = CNCC(=O)O

System: E. coli ATCC 11775
Assay type: cell-based
Details: ATCC 11775, 24 h
Protocol: Lyophilized peptides were dissolved in NB to give a concentration of 400 μM and filtered using 0.22 μm filter discs (Millex GV, Durapore). An overnight culture in NB was adjusted to 5×10^6 CFU/mL and inoculated into the micro titer plate wells (10 μL) containing each 100 μL of a serial 2-fold dilution (200-0.4 μM) of the tested peptide in NB. Plates were incubated while gently shaking at 37 ° C. for 24 h. Next, 80 μL suspension of each well was transported into a flat-bottom 96-well plate (Costar). The absorbance was measured at 600 nm using a μQuant micro plate spectrophotometer (Bio-Tek Instruments). All peptides were measured in quadruplo. The peptide with sequence […] (see Otvos Jr, […]; Otvos, B. I.; Hoffmann, […].; Wade, […].; Bulet, P. Protein Sci. 2000, 9, 742) was used as negative control.

In order of falling MIC:
1. CC[C@H](C)[C@H](NC(=O)[C@@H]1CCCN1C(=O)[C@H](CCCNC(=N)N)NC(=O)[C@@H]1CCCN1C(=O)[C@H](Cc1c[nH]cn1)NC(=O)[C@H](CO)NC(=O)[C@@H](NC(=O)[C@@H]1CCCN1C(=O)[C@H](CCCNC(=N)N)NC(=O)[C@@H]1CCCN1C(=O)[C@H](CO)N(C)C(=O)[C@H](Cc1ccc(O)cc1)NC(=O)[C@@H]1CCCN1C(=O)[C@H](CCCNC(=N)N)NC(=O)[C@@H]1CCCN1C(=O)[C@H](CCCCN)NC(=O)CN)[C@@H](C)O)C(=O)N[C@@H](CCCNC(=N)N)C(=O)N[C@H](C(=O)O)C(C)C [Peptide 2, GKPRP Y^MeSPRP TSHPR PIRV] (H-GKPRPY[NMeS]PRPTSHPRPIRV-OH)  25 µM (≈ 55.3 µg/mL)
2. CC[C@H](C)[C@H](NC(=O)[C@@H]1CCCN1C(=O)[C@H](CCCNC(=N)N)NC(=O)[C@@H]1CCCN1C(=O)[C@H](Cc1c[nH]cn1)NC(=O)[C@H](CO)NC(=O)[C@@H](NC(=O)[C@@H]1CCCN1C(=O)[C@H](CCCNC(=N)N)NC(=O)[C@@H]1CCCN1C(=O)C[C@H](CO)NC(=O)C[C@H](Cc1ccc(O)cc1)NC(=O)[C@@H]1CCCN1C(=O)[C@H](CCCNC(=N)N)NC(=O)[C@@H]1CCCN1C(=O)[C@H](CCCCN)NC(=O)CN)[C@@H](C)O)C(=O)N[C@@H](CCCNC(=N)N)C(=O)N[C@H](C(=O)O)C(C)C [Peptide 11, GKPRP βYβSPRP TSHPR PIRV] (H-GKPRP[β3hY][β3hS]PRPTSHPRPIRV-OH)  12.5 µM (≈ 27.8 µg/mL)
3. CC[C@H](C)[C@H](NC(=O)[C@@H]1CCCN1C(=O)[C@H](CCCNC(=N)N)NC(=O)[C@@H]1CCCN1C(=O)[C@H](Cc1cnc[nH]1)NC(=O)[C@H](CO)NC(=O)[C@@H](NC(=O)[C@@H]1CCCN1C(=O)[C@H](CCCNC(=N)N)NC(=O)[C@@H]1CCCN1C(=O)[C@H](CO)NC(=O)[C@H](Cc1ccc(O)cc1)NC(=O)[C@@H]1CCCN1C(=O)[C@H](CCCNC(=N)N)NC(=O)[C@@H]1CCCN1C(=O)[C@H](CCCCN)NC(=O)CN)[C@@H](C)O)C(=O)N[C@@H](CCCNC(=N)N)C(=O)N[C@H](C(=O)O)C(C)C [Peptide 1, GKPRP YSPRP TSHPR PIRV, reference compound] (H-GKPRPYSPRPTSHPRPIRV-OH)  6.3 µM (≈ 13.9 µg/mL)
4. CC[C@H](C)[C@H](NC(=O)[C@@H]1CCCN1C(=O)[C@H](CCCNC(=N)N)NC(=O)[C@@H]1CCCN1C(=O)[C@H](Cc1c[nH]cn1)NC(=O)[C@H](CO)NC(=O)[C@@H](NC(=O)[C@@H]1CCCN1C(=O)[C@H](CCCNC(=N)N)NC(=O)[C@@H]1CCCN1C(=O)[C@H](CO)NC(=O)[C@@H](Cc1ccc(O)cc1)NC(=O)[C@@H]1CCCN1C(=O)[C@H](CCCNC(=N)N)NC(=O)[C@@H]1CCCN1C(=O)[C@H](CCCCN)NC(=O)CN)[C@@H](C)O)C(=O)N[C@@H](CCCNC(=N)N)C(=O)N[C@H](C(=O)O)C(C)C [Peptide 6, GKPRP DYSPRP TSHPR PIRV] (H-GKPRP[dY]SPRPTSHPRPIRV-OH; N-terminus assumed)  6.3 µM (≈ 13.9 µg/mL)
5. CC[C@H](C)[C@H](NC(=O)[C@@H]1CCCN1C(=O)[C@H](CCCNC(=N)N)NC(=O)[C@@H]1CCCN1C(=O)[C@H](Cc1c[nH]cn1)NC(=O)[C@H](CO)NC(=O)[C@@H](NC(=O)[C@@H]1CCCN1C(=O)[C@H](CCCNC(=N)N)NC(=O)[C@@H]1CCCN1C(=O)[C@@H](NC(=O)[C@H](Cc1ccc(O)cc1)NC(=O)[C@@H]1CCCN1C(=O)[C@H](CCCNC(=N)N)NC(=O)[C@@H]1CCCN1C(=O)[C@H](CCCCN)NC(=O)CCCCN)[C@@H](C)O)[C@@H](C)O)C(=O)N[C@@H](CCCNC(=N)N)C(=O)N[C@H](C(=O)O)C(C)C [Peptide 12, AvaKPRP YTPRP TSHPR PIRV] (H-[Ava]KPRPYTPRPTSHPRPIRV-OH; N-terminus assumed)  6.3 µM (≈ 14.2 µg/mL)
6. CC[C@H](C)[C@H](NC(=O)[C@@H]1CCCN1C(=O)[C@H](CCCNC(=N)N)NC(=O)[C@@H]1CCCN1C(=O)[C@H](Cc1c[nH]cn1)NC(=O)[C@H](CO)NC(=O)[C@@H](NC(=O)[C@@H]1CCCN1C(=O)[C@H](CCCNC(=N)N)NC(=O)[C@@H]1CCCN1C(=O)[C@@H](NC(=O)[C@H](Cc1ccc(O)cc1)NC(=O)[C@@H]1CCCN1C(=O)[C@H](CCCNC(=N)N)NC(=O)[C@@H]1CCCN1C(=O)[C@H](CCCCN)NC(=O)CCCN)[C@@H](C)O)[C@@H](C)O)C(=O)N[C@@H](CCCNC(=N)N)C(=O)N[C@H](C(=O)O)C(C)C [Peptide 13, AbuKPRP YTPRP TSHPR PIRV] (H-[GABA]KPRPYTPRPTSHPRPIRV-OH; N-terminus assumed)  6.3 µM (≈ 14.1 µg/mL)
7. CC[C@H](C)[C@H](NC(=O)[C@@H]1CCCN1C(=O)[C@H](CCCNC(=N)N)NC(=O)[C@@H]1CCCN1C(=O)[C@H](Cc1c[nH]cn1)NC(=O)[C@H](CO)NC(=O)[C@@H](NC(=O)[C@@H]1CCCN1C(=O)[C@H](CCCNC(=N)N)NC(=O)[C@@H]1CCCN1C(=O)[C@@H](NC(=O)[C@H](Cc1ccc(O)cc1)NC(=O)[C@@H]1CCCN1C(=O)[C@H](CCCNC(=N)N)NC(=O)[C@@H]1CCCN1C(=O)[C@H](CCCCN)NC(=O)CNC)[C@@H](C)O)[C@@H](C)O)C(=O)N[C@@H](CCCNC(=N)N)C(=O)N[C@H](C(=O)O)C(C)C [Peptide 15, SarKPRP YTPRP TSHPR PIRV] (H-[Sar]KPRPYTPRPTSHPRPIRV-OH; N-terminus assumed)  6.3 µM (≈ 14 µg/mL)
8. CC[C@H](C)[C@H](NC(=O)[C@@H]1CCCN1C(=O)[C@H](CCCNC(=N)N)NC(=O)[C@@H]1CCCN1C(=O)[C@H](Cc1c[nH]cn1)NC(=O)[C@H](CO)NC(=O)[C@@H](NC(=O)[C@@H]1CCCN1C(=O)[C@H](CCCNC(=N)N)NC(=O)[C@@H]1CCCN1C(=O)[C@H](CO)NC(=O)[C@H](Cc1ccccc1)NC(=O)[C@@H]1CCCN1C(=O)[C@H](CCCNC(=N)N)NC(=O)[C@@H]1CCCN1C(=O)[C@H](CCCCN)NC(=O)CN)[C@@H](C)O)C(=O)N[C@@H](CCCNC(=N)N)C(=O)N[C@H](C(=O)O)C(C)C [Peptide 3, GKPRP FSPRP TSHPR PIRV] (H-GKPRPFSPRPTSHPRPIRV-OH; N-terminus assumed)  3.1 µM (≈ 6.77 µg/mL)
9. CC[C@H](C)[C@H](NC(=O)[C@@H]1CCCN1C(=O)[C@H](CCCNC(=N)N)NC(=O)[C@@H]1CCCN1C(=O)[C@H](Cc1c[nH]cn1)NC(=O)[C@H](CO)NC(=O)[C@@H](NC(=O)[C@@H]1CCCN1C(=O)[C@H](CCCNC(=N)N)NC(=O)[C@@H]1CCCN1C(=O)[C@@H](NC(=O)[C@H](Cc1ccccc1)NC(=O)[C@@H]1CCCN1C(=O)[C@H](CCCNC(=N)N)NC(=O)[C@@H]1CCCN1C(=O)[C@H](CCCCN)NC(=O)CN)[C@@H](C)O)[C@@H](C)O)C(=O)N[C@@H](CCCNC(=N)N)C(=O)N[C@H](C(=O)O)C(C)C [Peptide 5, GKPRP FTPRP TSHPR PIRV] (H-GKPRPFTPRPTSHPRPIRV-OH; N-terminus assumed)  3.1 µM (≈ 6.81 µg/mL)
10. CC[C@H](C)[C@H](NC(=O)[C@@H]1CCCN1C(=O)[C@H](CCCNC(=N)N)NC(=O)[C@@H]1CCCN1C(=O)[C@H](Cc1c[nH]cn1)NC(=O)[C@H](CO)NC(=O)[C@@H](NC(=O)[C@@H]1CCCN1C(=O)[C@H](CCCNC(=N)N)NC(=O)[C@@H]1CCCN1C(=O)[C@H](CO)NC(=O)C[C@H](Cc1ccc(O)cc1)NC(=O)[C@@H]1CCCN1C(=O)[C@H](CCCNC(=N)N)NC(=O)[C@@H]1CCCN1C(=O)[C@H](CCCCN)NC(=O)CN)[C@@H](C)O)C(=O)N[C@@H](CCCNC(=N)N)C(=O)N[C@H](C(=O)O)C(C)C [Peptide 9, GKPRP βYSPRP TSHPR PIRV] (H-GKPRP[β3hY]SPRPTSHPRPIRV-OH)  3.1 µM (≈ 6.86 µg/mL)
11. CC[C@H](C)[C@H](NC(=O)[C@@H]1CCCN1C(=O)[C@H](CCCNC(=N)N)NC(=O)[C@@H]1CCCN1C(=O)[C@H](Cc1c[nH]cn1)NC(=O)[C@H](CO)NC(=O)[C@@H](NC(=O)[C@@H]1CCCN1C(=O)[C@H](CCCNC(=N)N)NC(=O)[C@@H]1CCCN1C(=O)C[C@H](CO)NC(=O)[C@H](Cc1ccc(O)cc1)NC(=O)[C@@H]1CCCN1C(=O)[C@H](CCCNC(=N)N)NC(=O)[C@@H]1CCCN1C(=O)[C@H](CCCCN)NC(=O)CN)[C@@H](C)O)C(=O)N[C@@H](CCCNC(=N)N)C(=O)N[C@H](C(=O)O)C(C)C [Peptide 10, GKPRP YβSPRP TSHPR PIRV] (H-GKPRPY[β3hS]PRPTSHPRPIRV-OH)  3.1 µM (≈ 6.86 µg/mL)
